The conditions of data set [1]: male rats, 6 mg/rat of microemulsion of Example 11.
Description: (§1) Plasma samples were taken before the administration of the compound and 0.5 hours, 24 hours, 4, 6 and 8 days after treatment.
(§2) Octreotide was extracted from plasma and analyzed with LC-MS-MS apparatus vs. a calibration curve.
Another data set is described as follows: in vivo. Particulars: male, rat, plasma, 6 mg/rat.

SMILES strings stand for the structures.

Description for in vivo: as §1, §2

For the compound `C[C@@H](O)[C@@H]1NC(=O)[C@H](CCCCN)NC(=O)[C@@H](Cc2c[nH]c3ccccc23)NC(=O)[C@H](Cc2ccccc2)NC(=O)[C@@H](NC(=O)[C@H](N)Cc2ccccc2)CSSC[C@@H](C(=O)N[C@H](CO)[C@@H](C)O)NC1=O` [Octreotide], the “Time until which significant Octreotide plasma levels were found after treatment” value in data set [1] amounted to 8 days. Moreover, in the data set “in vivo”, the level at 0.5 h worked out at 539 ng/mL, the level at 24 h was determined as 40.2 ng/mL, the level at 96 h worked out at 62.5 ng/mL and the level at 144 h came to 4.5 ng/mL. In “in vivo”, the level at 192 h came to 7.6 ng/mL.

Source of the values: patent US7157099B2, “Sustained release pharmaceutical compositions for the parenteral administration of hydrophilic compounds” (Italfarmaco S.p.A., priority 2000, dated 2007).
